Assay [1] deals with L6. Kind of assay: Insulin mimetic activity in rat L6 cells assessed as stimulation of 2-deoxyglucose uptake at 0.1 nM by enzymatic method relative to untreated control. It is filed as functional.
The subject of assay [2] is L6. Kind of assay: Insulin mimetic activity in rat L6 cells assessed as stimulation of 2-deoxyglucose uptake at 1 nM by enzymatic method relative to untreated control. Format: functional.
Assay [3] relates to L6. The experiment in a line: Insulin mimetic activity in rat L6 cells assessed as stimulation of 2-deoxyglucose uptake at 1 mM by enzymatic method relative to untreated control. Format: functional, cell-based.

Activity calls are given as the source filed them. The calls are words filed in the database; no cut-off is given here.

Take `O=c1c(O[C@@H]2O[C@H](CO)[C@@H](O)[C@H](O)[C@H]2O)c(-c2ccc(O)cc2)oc2cc(O)cc(O)c12`: the Activity entry in the assay on L6 [1] (filed as antagonist) is “Irreversible Antagonist”. In the assay with L6 [2], the outcome was inactive.

Turning to `C[C@@H]1O[C@@H](O[C@H]2C(O)O[C@H](CO)[C@@H](O)[C@@H]2O)[C@H](O)[C@H](O)[C@H]1O` (some centres not stated) [NEOHESPERIDOSE], the Activity in the assay with L6 [1] and with L6 [2] was 200% in each case.

Take `O=c1c(O)c(-c2ccc(O)cc2)oc2cc(O)cc(O)c12`: the outcome in the assay on L6 [2] was inactive.

For the molecule `C[C@H]1O[C@H](O[C@H]2[C@H](Oc3c(-c4ccc(O)cc4)oc4cc(O)cc(O)c4c3=O)O[C@H](CO)[C@@H](O)[C@@H]2O)[C@@H](O)[C@@H](O)[C@@H]1O`, the result in the assay on L6 [3] was inactive. The Activity in the assay with L6 [2] is recorded as 200%.
